# Assay results as given in patent US20210260213A1, “METHODS AND COMPOSITIONS FOR DELIVERY OF A THERAPEUTIC AGENT” (priority 2018, published 2021).
# Tests used:
# MRSA = test: Filter disc zone of inhibition on Mueller Hinton plates; assay type: cell-based
# Protocol: (§1) Antimicrobial activity of the released drug was tested on Pseudomonas aeruginosa and MRSA cultures and compared to standard concentrations of antibiotic using filter disks on Mueller Hinton plates. The released antibiotics or controls were added onto sterile filter discs (created using a standard hole punch on filter paper, autoclaved). One colony of each bacteria was selected and (pseudomonas or MRSA) placed into a bacteria culture tube and were incubated in 5 mL of LB broth and placed on 37° C. shaker for approximately 4-6 hours.
# (§2) 500 μL of the incubated bacteria was then added to the Mueller-Hinton Plates (which have been acclimated to room temperature for at least 2 hours) and a plastic disposable spreader was used to carefully spread the bacteria broth onto the plates and allowed to settle for approximately 5-10 minutes. The filter discs were then placed on top of the bacterial plate and the plates inverted and placed in the 37° C. incubator overnight. After 24 hours, the plates were removed and the zones of inhibition measured and photographed. Parafilm was used to wrap around each plate to keep the plates at room temperature.
# [1] = published studies; cited from earlier work
# Pseudomonas aeruginosa = test: Filter disc zone of inhibition on Mueller Hinton plates; assay type: cell-based; conditions: control study
# Protocol: as §1, §2
structure (smiles),measurement,setting,value
CN[C@H](CC(C)C)C(=O)N[C@H]1C(=O)N[C@@H](CC(N)=O)C(=O)N[C@H]2C(=O)N[C@H]3C(=O)N[C@H](C(=O)N[C@H](C(=O)O)c4cc(O)cc(O)c4-c4cc3ccc4O)[C@H](O)c3ccc(c(Cl)c3)Oc3cc2cc(c3O[C@@H]2O[C@H](CO)[C@@H](O)[C@H](O)[C@H]2O[C@H]2C[C@](C)(N)[C@H](O)[C@H](C)O2)Oc2ccc(cc2Cl)[C@H]1O [Vancomycin],zone of inhibition at 10 µg/disc,"MRSA; Staphylococcus aureus, MRSA, control, 10 μg on a filter disc",8 mm
same,amount sufficient to inhibit growth,"MRSA; control study, filter disc",10 µg
same,zone of inhibition,"MRSA; drug released from the HA polymer, every collection between 1 hour and 7 days",up to 15 mm
same,minimum inhibitory concentration,[1],2 µg/mL
O=C(O)c1cn(C2CC2)c2cc(N3CCNCC3)c(F)cc2c1=O [Ciprofloxacin],amount sufficient to inhibit growth,Pseudomonas aeruginosa,5 µg
same,minimum inhibitory concentration,[1],0.5 µg/mL
